# According to publication PMC12274840 (The Journal of Biological Chemistry, 2025):
# Values joined by “and” are separate entries in the source; they are usually repeats but may differ in a detail not shown here. Equal values may be shown once. Read-outs that look alike come from different tables or passages of the source.
# Experiments:
# BlaC WT = target: T1, BlaC WT (Mycobacterium tuberculosis, UniProt P9WKD3); format: biochemical
# T1 construct: correspond to residue numbers 41-307 of BlaC (Uniprot entry P9WKD3-1); His tag with TEV cleavage site (N); made in house; host or cells: E. coli BL21 (DE3) pLysS
# T1 sequence (P9WKD3 41-307): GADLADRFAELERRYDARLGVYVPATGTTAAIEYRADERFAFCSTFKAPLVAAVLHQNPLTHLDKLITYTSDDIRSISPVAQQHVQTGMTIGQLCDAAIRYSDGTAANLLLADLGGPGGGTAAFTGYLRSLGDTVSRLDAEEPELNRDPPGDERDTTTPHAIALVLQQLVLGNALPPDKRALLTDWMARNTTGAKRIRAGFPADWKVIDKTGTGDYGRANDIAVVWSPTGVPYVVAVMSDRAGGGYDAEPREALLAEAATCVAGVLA
# [1] = test system: E. coli KA797 cells carrying pUK21 with NmcA (pelB/Sec); assay: microbe, parasite or virus in culture; format: cell-based; conditions: in combination with 25 μg/ml carbenicillin
# [2] = test system: E. coli KA797 cells carrying pUK21 with TEM-1 Y105G; format: cell-based, Escherichia coli; conditions: in combination with 100 μg/ml carbenicillin
# [3] = test system: E. coli KA797 cells carrying pUK21 with CTX-M-14 Y105G; format: cell-based, Escherichia coli; conditions: in combination with 100 μg/ml carbenicillin
# [4] = test system: E. coli KA797 cells carrying pUK21 with TEM-1 WT (Sec); assay: microbe, parasite or virus in culture; format: cell-based; conditions: in combination with 100 μg/ml carbenicillin
# TEM-1 WT = TEM-1 WT (Escherichia coli, UniProt P62593); format: biochemical; design: 24 to 286 of TEM-1 (P62593); His tag with TEV cleavage site (N); made in house; host or cells: E. coli BL21 (DE3) pLysS; conditions: avibactam, TEM-1 WT
# [5] = test system: E. coli KA797 cells carrying BlaC position 105 library; format: cell-based, Escherichia coli; conditions: for Fi AVG (average fitness): average of replicates
# [6] = test system: E. coli KA797 cells carrying pUK21 with BlaC I105G; format: cell-based, Escherichia coli; conditions: in combination with 100 μg/ml carbenicillin
# CTX-M-14 WT = target: T2, CTX-M-14 WT (Escherichia coli, UniProt Q9L5C7); assay: biochemical
# T2 construct: 29 to 291 of CTX-M-14 (Q9L5C7); His tag with TEV cleavage site (N); made in house; host or cells: E. coli BL21 (DE3) pLysS
# [7] = test system: E. coli KA797 cells carrying pUK21 with BlaC WT (Tat); assay: microbe, parasite or virus in culture; format: cell-based; conditions: in combination with 100 μg/ml carbenicillin
# [8] = test system: E. coli KA797 cells carrying pUK21 with KPC-2 (Tat); assay: microbe, parasite or virus in culture; format: cell-based; conditions: in combination with 100 μg/ml carbenicillin
# [9] = test system: E. coli KA797 cells carrying pUK21 with BlaC I105R; format: cell-based, Escherichia coli; conditions: in combination with 100 μg/ml carbenicillin
# [10] = test system: E. coli KA797 cells carrying pUK21 with TEM-1 Y105R; format: cell-based, Escherichia coli; conditions: in combination with 100 μg/ml carbenicillin
# [11] = test system: E. coli KA797 cells carrying pUK21 with CTX-M-14 Y105R; format: cell-based, Escherichia coli; conditions: in combination with 100 μg/ml carbenicillin
# CTX-M-14 Y105G = target: T3, CTX-M-14 Y105G (Escherichia coli, UniProt Q9L5C7, Y108G); assay: biochemical
# T3 construct: 29 to 291 of CTX-M-14 (Q9L5C7); His tag with TEV cleavage site (N); made in house; host or cells: E. coli BL21 (DE3) pLysS
# TEM-1 Y105G = TEM-1 Y105G (Escherichia coli, UniProt P62593, Y103G); assay: In vitro inhibition of nitrocefin hydrolysis and simulation of inhibition curves, TEM-1 Y105G; format: biochemical; conditions: avibactam, simulation Eq 3/9
# [12] = test system: E. coli KA797 cells carrying pUK21 with CTX-M-14 WT (Tat); assay: microbe, parasite or virus in culture; format: cell-based; conditions: in combination with 100 μg/ml carbenicillin
# [13] = avibactam, simulation Eq 3/9, CTX-M-14 WT
# [14] = avibactam, simulation Eq 3/9, CTX-M-14 Y105G
compound,measurement,setting,value
NC(=O)[C@@H]1CC[C@@H]2CN1C(=O)N2OS(=O)(=O)O [avibactam],k2,BlaC WT,6.5 and 6.5 10^−2 s^−1
same,k-2,BlaC WT,0.1 and 0.1 10^−3 s^−1
same,MIC of inhibitor,[1],0.5 µg/mL
same,MIC of inhibitor,[2],16 µg/mL
same,MIC of inhibitor,[3],2 µg/mL
same,MIC of inhibitor,[4],1 µg/mL
same,k2,TEM-1 WT; simulation Eq 3/9,5.7 10^−2 s^−1
same,k-2,TEM-1 WT; simulation Eq 3/9,0.2 10^−3 s^−1
same,k1,TEM-1 WT; simulation Eq 9,1e+06 M⁻¹ s⁻¹
same,Fi AVG (average fitness),"[5]; AA 105 Ala (BlaC I105A), relative to WT Ile",0.716
same,Significance of average fitness,[5]; AA 105 Arg (BlaC I105R),+
same,Fi AVG (average fitness),"[5]; AA 105 Arg (BlaC I105R), relative to WT Ile",2.021
same,Fi AVG (average fitness),"[5]; AA 105 Asn (BlaC I105N), relative to WT Ile",-0.462
same,Fi AVG (average fitness),"[5]; AA 105 Asp (BlaC I105D), relative to WT Ile",0.306
same,Fi AVG (average fitness),"[5]; AA 105 Cys (BlaC I105C), relative to WT Ile",0.512
same,Significance of average fitness,[5]; AA 105 Gln (BlaC I105Q),+
same,Fi AVG (average fitness),"[5]; AA 105 Gln (BlaC I105Q), relative to WT Ile",1.438
same,Fi AVG (average fitness),"[5]; AA 105 Glu (BlaC I105E), relative to WT Ile",0.205
same,Significance of average fitness,[5]; AA 105 Gly (BlaC I105G),+
same,Fi AVG (average fitness),"[5]; AA 105 Gly (BlaC I105G), relative to WT Ile",2.428
same,Fi AVG (average fitness),"[5]; AA 105 His (BlaC I105H), relative to WT Ile",0.810
same,Fi AVG (average fitness),"[5]; AA 105 Ile (BlaC WT, reference)",0.000
same,Significance of average fitness,[5]; AA 105 Leu (BlaC I105L),+
same,Fi AVG (average fitness),"[5]; AA 105 Leu (BlaC I105L), relative to WT Ile",1.665
same,Significance of average fitness,[5]; AA 105 Lys (BlaC I105K),+
same,Fi AVG (average fitness),"[5]; AA 105 Lys (BlaC I105K), relative to WT Ile",0.933
same,Fi AVG (average fitness),"[5]; AA 105 Met (BlaC I105M), relative to WT Ile",0.542
same,Significance of average fitness,[5]; AA 105 Phe (BlaC I105F),+
same,Fi AVG (average fitness),"[5]; AA 105 Phe (BlaC I105F), relative to WT Ile",2.659
same,Significance of average fitness,[5]; AA 105 Pro (BlaC I105P),-
same,Fi AVG (average fitness),"[5]; AA 105 Pro (BlaC I105P), relative to WT Ile",-1.222
same,Significance of average fitness,[5]; AA 105 Ser (BlaC I105S),+
same,Fi AVG (average fitness),"[5]; AA 105 Ser (BlaC I105S), relative to WT Ile",1.393
same,Significance of average fitness,[5]; AA 105 Thr (BlaC I105T),+
same,Fi AVG (average fitness),"[5]; AA 105 Thr (BlaC I105T), relative to WT Ile",1.333
same,Significance of average fitness,[5]; AA 105 Trp (BlaC I105W),+
same,Fi AVG (average fitness),"[5]; AA 105 Trp (BlaC I105W), relative to WT Ile",2.468
same,Significance of average fitness,[5]; AA 105 Tyr (BlaC I105Y),+
same,Fi AVG (average fitness),"[5]; AA 105 Tyr (BlaC I105Y), relative to WT Ile",3.416
same,Fi AVG (average fitness),"[5]; AA 105 Val (BlaC I105V), relative to WT Ile",-0.187
same,WT abs Fi 1,"[5]; absolute fitness of BlaC WT (Ile 105), replicate 1",-1.354
same,WT abs Fi 2,"[5]; absolute fitness of BlaC WT (Ile 105), replicate 2",-1.584
same,WT abs Fi 3,"[5]; absolute fitness of BlaC WT (Ile 105), replicate 3",-0.942
same,MIC of inhibitor,[6],32 µg/mL
same,Ki,CTX-M-14 WT,0.47 µM
same,k2,CTX-M-14 WT; [13],6.6 10^−2 s^−1
same,k-2,CTX-M-14 WT; [13],0.3 10^−3 s^−1
same,k1,"CTX-M-14 WT; avibactam, simulation Eq 9, CTX-M-14 WT",1e+06 M⁻¹ s⁻¹
same,MIC of inhibitor,[7],16 µg/mL
same,MIC of inhibitor,[8],0.5 µg/mL
same,MIC of inhibitor,[9],64 µg/mL
same,MIC of inhibitor,[10],4 µg/mL
same,MIC of inhibitor,[11],1 µg/mL
same,Ki,CTX-M-14 Y105G,50 µM
same,k2,CTX-M-14 Y105G; [14],4.6 10^−2 s^−1
same,k-2,CTX-M-14 Y105G; [14],0.25 10^−3 s^−1
same,k2,TEM-1 Y105G,5 10^−2 s^−1
same,k-2,TEM-1 Y105G,0.75 10^−3 s^−1
same,MIC of inhibitor,[12],0.5 µg/mL
